In paper PMC11880180, “Theranostic Near-Infrared Monoamine Oxidase Inhibitor (NMI) Protein Binding Interactions with MAOA and Albumin” (Pharmaceutical Research, 2025):

Target: T1, MAOA (monoamine oxidase A) (Homo sapiens, UniProt P21397)
T1 construct: recombinant human MAOA (M7316-1VL)
T1 sequence (P21397 1-527): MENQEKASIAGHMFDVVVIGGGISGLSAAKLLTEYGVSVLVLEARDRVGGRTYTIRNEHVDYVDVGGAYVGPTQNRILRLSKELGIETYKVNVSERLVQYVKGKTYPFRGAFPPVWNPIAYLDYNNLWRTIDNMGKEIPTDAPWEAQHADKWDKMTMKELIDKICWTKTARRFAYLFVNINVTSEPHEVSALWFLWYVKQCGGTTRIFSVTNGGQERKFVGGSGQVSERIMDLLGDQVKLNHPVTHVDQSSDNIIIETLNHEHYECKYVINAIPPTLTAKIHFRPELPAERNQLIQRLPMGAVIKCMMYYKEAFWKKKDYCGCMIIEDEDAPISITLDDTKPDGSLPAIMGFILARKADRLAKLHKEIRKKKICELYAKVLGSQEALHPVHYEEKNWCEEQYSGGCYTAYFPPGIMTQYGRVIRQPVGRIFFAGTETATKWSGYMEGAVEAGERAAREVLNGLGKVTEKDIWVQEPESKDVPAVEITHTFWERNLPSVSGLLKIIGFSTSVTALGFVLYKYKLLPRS
Assay: MAO-Glo activity assay with recombinant MAOA (IC50 […] in PEG, […] in PBS); fluorescent SDS-PAGE band of pure protein
Format: biochemical

With `C#CCN(CCCNC(=O)CCCCC[N+]1=C(/C=C/C2=C(Cl)C(=C/C=C3\N(CCCCCC(=O)[O-])c4ccccc4C3(C)C)/CCC2)C(C)(C)c2ccccc21)CCCOc1ccc(Cl)cc1Cl` [NMI] the IC50 was 1600 nM.
